Results taken from US20250276972A1, “COMPOUNDS AS CASEIN KINASE INHIBITORS” (GRITSCIENCE BIOPHARMACEUTICALS CO.,LTD., priority 2020, published 2025).

Experiments:
CK1δ = molecular target: T1, CK1δ (Homo sapiens, UniProt P48730); test: CK1δ inhibition (EC50); Bmal1-dLuc or Per2-dLuc U2OS luminescence rhythm period assay; assay type: cell-based; conditions: Table 3
T1 construct: endogenous in cells; host or cells: Bmal1-dLuc or Per2-dLuc U2OS cells
Method: Bmall-dLuc or Per2-dLuc U2OS cells were suspended in the culture medium (DMEM supplemented with 10% fetal bovine serum, 0.29 mg/mL L-glutamine, 100 units/mL penicillin, and […] streptomycin) and plated onto 96-well white solid-bottom plates at 200 μL (10,000 cells) per well. After 2 days, 100 μL of the explant medium (DMEM supplemented with 2% B27, 10 mM HEPES, 0.38 mg/mL sodium bicarbonate, 0.29 mg/mL L-glutamine, 100 units/mL penicillin, […], 0.1 mg/mL gentamicin, and 1 mM luciferin, pH 7.2) was dispensed to each well, followed by the application of 1 μL of a compound of the present application (dissolved in DMSO; final concentration was 0.7% in DMSO). The plate was covered with an optically clear film and set to microplate reader (Infinite M200, Tecan).

[1] = Intrinsic clearance in liver microsomes (human); assay type: in vitro ADME; conditions: Human liver microsomes 0.5 mg/mL, 2 μM compound, 37° C.; for microsomal CLint at 2 μM: read-out: in vitro CLint (μL/min/mg protein); for half-life at 2 μM: read-out: in vitro t1/2
Method: (§1) • 1. The master solution was prepared according to Table 5.
(§2) • 2. Three separated experiments were performed as follows. a) With NADPH: 10 μL of 20 mg/mL liver microsomes and 40 μL of 10 mM NADPH were added to the incubations. The final concentrations of microsomes and NADPH were 0.5 mg/mL and 1 mM, respectively. b) Without NADPH: 10 μL of 20 mg/mL liver microsomes and 40 μL of ultra-pure H2O were added to the incubations. The final concentration of microsomes was 0.5 mg/mL. c) Heat-inactivated microsomes without NADPH: 10 μL of 20 mg/mL heat-inactivated liver microsomes and 40 μL of ultra-pure H2O were added to the incubations. The final concentration of microsomes was 0.5 mg/mL. • 3. The reaction was started with the addition of 4 μL of 200 μM test compound solution or control compound solution at the final concentration of 2 μM and carried out at 37° C. • 4. Aliquots of 50 μL were taken from the reaction solution at 0, 15, 30, 45 and 60 min. […] Samples were centrifuged at 3, 220 g for 40 minutes. […] Data Analysis
(§3) Peak areas were determined from extracted ion chromatograms. The slope value, k, was determined by linear regression of the natural logarithm of the remaining percentage of the parent drug vs. incubation time curve.
(§4) The in vitro half-life (in vitro t1/2) was determined from the slope value:
(§5) Conversion of the in vitro t1/2 (min) into the in vitro intrinsic clearance (in vitro CLint, in μL/min/mg protein) was done using the following equation (mean of duplicate determinations): […]

[2] = Intrinsic clearance in liver microsomes (mouse); assay type: in vitro ADME; conditions: Mouse liver microsomes 0.5 mg/mL, 2 μM compound, 37° C.; for microsomal CLint at 2 μM: read-out: in vitro CLint (μL/min/mg protein); for half-life at 2 μM: read-out: in vitro t1/2
Method: as §1, §2, §3, §4, §5

wild type CK1δ = wild type CK1δ (Homo sapiens, UniProt P48730); test: CK1δ kinase assay (Kinase-Glo); assay type: biochemical; conditions: 10 μM ATP, 2 nM wild type CK1δ, 85 min at 25° C.
Method: The reaction mixture was incubated for 85 min at 25° C.; detection was carried out as described for the Kinase-Glo Assay (Promega). Luminescent output was measured on the Perkin Elmer Envision plate reader (PerkinElmer, Waltham, MA).

T1 sequence (P48730 whole entry): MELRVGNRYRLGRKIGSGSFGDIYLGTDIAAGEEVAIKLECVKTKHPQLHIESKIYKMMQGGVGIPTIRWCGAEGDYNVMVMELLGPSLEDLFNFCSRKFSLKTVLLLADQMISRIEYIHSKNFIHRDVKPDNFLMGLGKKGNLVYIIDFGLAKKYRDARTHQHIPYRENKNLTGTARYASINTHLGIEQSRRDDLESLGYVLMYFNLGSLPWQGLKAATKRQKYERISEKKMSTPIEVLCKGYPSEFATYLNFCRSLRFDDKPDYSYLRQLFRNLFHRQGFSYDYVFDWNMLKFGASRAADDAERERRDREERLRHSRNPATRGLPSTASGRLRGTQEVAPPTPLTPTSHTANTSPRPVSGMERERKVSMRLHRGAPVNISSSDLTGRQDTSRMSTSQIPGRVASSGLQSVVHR
Chain of wild type CK1δ (P48730 whole entry): as above

Compound	EC50 (CK1δ) [nM]	microsomal CLint at 2 μM [1] [µL/min/mg]	half-life at 2 μM [1] [min]	microsomal CLint at 2 μM [2] [µL/min/mg]	half-life at 2 μM [2] [min]	IC50 (wild type CK1δ) [nM]
CC(=O)N1CCn2nc(-c3ccc(F)cc3)c(-c3ccnc(NCC(F)(F)F)c3)c2C1 [Compound I-96, 1-(2-(4-fluorophenyl)-3-(2-((2,2,2-trifluoroethyl)amino)pyridin-4-yl)-6,7-dihydropyrazolo [1,5-a]pyrazin-5(4H)-yl)ethan-1-one]	4500	3.74	370	10	138	–
CC(=O)N1CCn2nc(-c3ccc(F)cc3)c(-c3ccnc(NC(=O)C4(c5ccc(F)cc5)CC4)c3)c2C1 [Compound I-77, N-(4-(5-acetyl-2-(4-fluorophenyl)-4,5,6,7-tetrahydropyrazolo[1,5-a]pyrazin-3-yl)pyridin-2-yl)-1-(4-fluorophenyl)cyclopropane-1-carboxamide]	2000	25.2	55	152	9.14	–
CC(=O)Nc1cc(-c2c(-c3ccc(F)cc3)nn3c2CN(C2CC(O)C2)CC3)ccn1 (centres unmarked) [Compound I-44, N-(4-(2-(4-fluorophenyl)-5-(3-hydroxycyclobutyl)-4,5,6,7-tetrahydropyrazolo[1,5-a]pyrazin-3-yl)pyridin-2-yl)acetamide]	800	4.98	278	20.5	67.5	–
CN1CCn2nc(-c3ccc(F)cc3)c(-c3ccnc(NC(=O)Cc4ccc(F)cc4)c3)c2C1 [Compound I-80, 2-(4-fluorophenyl)-N-(4-(2-(4-fluorophenyl)-5-methyl-4,5,6,7-tetrahydropyrazolo [1,5-a]pyrazin-3-yl)pyridin-2-yl)acetamide]	100	112	12.3	552	2.51	–
Nc1cc(-c2nn3c(c2-c2ccc(F)cc2)C(=O)NCC3)ccn1 [Compound I-64, 2-(2-aminopyridin-4-yl)-3-(4-fluorophenyl)-6,7-dihydropyrazolo[1,5-a]pyrazin-4(5H)-one]	700	–	–	–	–	334
Cc1cc(-c2c(-c3ccc(F)cc3)nn3c2CN(C(=O)CCN(C)C)CC3)ccn1 [Compound I-6, 3-(dimethylamino)-1-(2-(4-fluorophenyl)-3-(2-methylpyridin-4-yl)-6,7-dihydropyrazolo[1,5-a]pyrazin-5(4H)-yl)propan-1-one]	7400	–	–	–	–	1030
[2H]C([2H])([2H])c1cc(-c2c(-c3ccc(F)cc3)nn3c2CN(C(=O)CCN(C)C)CC3)ccn1 [Compound I-134, 3-(dimethylamino)-1-(2-(4-fluorophenyl)-3-(2-(methyl-d3)pyridin-4-yl)-6,7-dihydropyrazolo[1,5-a]pyrazin-5(4H)-yl)propan-1-one]	–	–	–	–	–	1790
CC(=O)N1CCn2nc(-c3ccc(F)cc3)c(-c3ccnc(NC(=O)C(C)c4ccc(F)cc4)c3)c2C1 (centres unmarked) [Compound I-82, N-(4-(5-acetyl-2-(4-fluorophenyl)-4,5,6,7-tetrahydropyrazolo[1,5-a]pyrazin-3-yl)pyridin-2-yl)-2-(4-fluorophenyl)propanamide]	100	16.5	84.1	453	3.06	–
Cc1cc(-c2c(-c3ccc(F)cc3)nn3c2CN(C(=O)C(F)(F)F)CC3)ccn1 [Compound I-16, 2,2,2-trifluoro-1-(2-(4-fluorophenyl)-3-(2-methylpyridin-4-yl)-6,7-dihydropyrazolo [1,5-a]pyrazin-5(4H)-yl)ethan-1-one]	5200	–	–	–	–	1700
CN1CCn2nc(-c3ccc(F)cc3)c(-c3ccnc(NC(=O)C4CC4)c3)c2C1 [Compound I-89, N-(4-(2-(4-fluorophenyl)-5-methyl-4,5,6,7-tetrahydropyrazolo[1,5-a]pyrazin-3-yl)pyridin-2-yl)cyclopropanecarboxamide]	700	94.3	14.7	665	2.09	–
CC(=O)N1CCn2nc(-c3ccc(F)cc3)c(-c3cc(N)ncn3)c2C1 [Compound I-63, 1-(3-(6-aminopyrimidin-4-yl)-2-(4-fluorophenyl)-6,7-dihydropyrazolo[1,5-a]pyrazin-5(4H)-yl)ethan-1-one]	–	–	–	–	–	28900
CS(=O)(=O)N1CCn2nc(-c3ccc(F)cc3)c(-c3ccnc(N)n3)c2C1 [Compound I-21, 4-(2-(4-fluorophenyl)-5-(methylsulfonyl)-4,5,6,7-tetrahydropyrazolo[1,5-a]pyrazin-3-yl)pyrimidin-2-amine.]	400	–	–	–	–	364
CC(C)C(=O)Nc1cc(-c2c(-c3ccc(F)cc3)nn3c2CN(C)CC3)ccn1 [Compound I-102, N-(4-(2-(4-fluorophenyl)-5-methyl-4,5,6,7-tetrahydropyrazolo[1,5-a]pyrazin-3-yl)pyridin-2-yl)isobutyramide]	700	29.9	46.4	611	2.27	–
CCC(=O)Nc1cc(-c2c(-c3ccc(F)cc3)nn3c2CN(C)CC3)ccn1 [Compound I-103, N-(4-(2-(4-fluorophenyl)-5-methyl-4,5,6,7-tetrahydropyrazolo[1,5-a]pyrazin-3-yl)pyridin-2-yl)propionamide]	500	49.8	27.8	679	2.04	–
Cc1cc(-c2c(-c3ccc(F)cc3)nn3c2CN(CCO)CC3)ccn1 [Compound I-11, 2-(2-(4-fluorophenyl)-3-(2-methylpyridin-4-yl)-6,7-dihydropyrazolo[1,5-a]pyrazin-5. (4H)-yl)ethan-1-ol]	–	8.74	159	16.3	84.9	–
COCCN1CCn2nc(-c3ccc(F)cc3)c(-c3ccnc(NC(C)=O)c3)c2C1 [Compound I-40, N-(4-(2-(4-fluorophenyl)-5-(2-methoxyethyl)-4,5,6.7-tetrahydropyrazolo[1,5-a]pyrazin-3-yl)pyridin-2-yl)acetamide]	700	52.5	26.4	532	2.61	–
CC(=O)Nc1cc(-c2c(-c3ccc(F)cc3)nn3c2CN(C2CCC2)CC3)ccn1 [Compound I-33, N-(4-(5-cyclobutyl-2-(4-fluorophenyl)-4,5,6,7-tetrahydropyrazolo[1,5-a]pyrazin-3-yl)pyridin-2-yl)acetamide]	500	274	5.06	1040	1.33	–
CCC(C)C(=O)Nc1cc(-c2c(-c3ccc(F)cc3)nn3c2CN(C)CC3)ccn1 (centres unmarked) [Compound I-100, N-(4-(2-(4-fluorophenyl)-5-methyl-4,5,6,7-tetrahydropyrazolo[1,5-a]pyrazin-3-yl)pyridin-2-yl)-2-methylbutanamide]	600	68.2	20.3	465	2.98	–
CC(=O)Nc1cc(-c2c(-c3ccc(F)cc3)nn3c2CN(CCF)CC3)ccn1 [Compound I-42, N-(4-(5-(2-fluoroethyl)-2-(4-fluorophenyl)-4,5,6,7-tetrahydropyrazolo[1,5-a]pyrazin-3-yl)pyridin-2-yl)acetamide]	400	47.4	29.2	975	1.42	–
